What all share (type): cell-based
Holding throughout (details): CreLuc reporter gene assay

One experiment concerns the target T1, hGIPR (Homo sapiens, UniProt P48546).
T1 construct: expressed in transfected cells; host or cells: CHO cells carrying a CRE-luciferase reporter gene
T1 sequence (P48546 22-466): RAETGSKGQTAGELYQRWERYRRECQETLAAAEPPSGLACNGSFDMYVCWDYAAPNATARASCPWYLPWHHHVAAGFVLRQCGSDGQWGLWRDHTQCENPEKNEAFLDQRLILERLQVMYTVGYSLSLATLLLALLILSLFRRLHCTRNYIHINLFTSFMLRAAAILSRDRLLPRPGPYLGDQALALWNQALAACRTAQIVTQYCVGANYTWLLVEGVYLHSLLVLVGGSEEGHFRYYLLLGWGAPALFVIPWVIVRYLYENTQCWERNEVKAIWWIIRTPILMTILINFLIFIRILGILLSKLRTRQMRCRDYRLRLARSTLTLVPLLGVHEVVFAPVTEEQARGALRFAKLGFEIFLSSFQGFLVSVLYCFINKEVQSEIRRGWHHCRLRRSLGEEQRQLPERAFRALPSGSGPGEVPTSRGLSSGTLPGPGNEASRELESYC
The experiment can be described thus: hGIPR CreLuc reporter gene assay in 0.5% and 100% plasma. A digest of the protocol:
(§1)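 Agonist EC50s came from 8-concentration curves over four decades, fitted by non-linear variable-slope regression of CRE-driven luciferase luminescence. Cells were exposed 4 h at 37 °C, in buffer with 0.5% human plasma or in 100% plasma; GIPR was expressed in CHO cells, GLP-1R and NPY2R in HEK cells.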
A general note: In a reporter assay the amount or activity of a reporter protein is the signal.

The next experiment addresses T2, hNPY2R (Homo sapiens, UniProt P49146).
T2 construct: expressed in transfected cells; host or cells: HEK-293 cells carrying a CRE-luciferase reporter gene
T2 sequence (P49146 1-381): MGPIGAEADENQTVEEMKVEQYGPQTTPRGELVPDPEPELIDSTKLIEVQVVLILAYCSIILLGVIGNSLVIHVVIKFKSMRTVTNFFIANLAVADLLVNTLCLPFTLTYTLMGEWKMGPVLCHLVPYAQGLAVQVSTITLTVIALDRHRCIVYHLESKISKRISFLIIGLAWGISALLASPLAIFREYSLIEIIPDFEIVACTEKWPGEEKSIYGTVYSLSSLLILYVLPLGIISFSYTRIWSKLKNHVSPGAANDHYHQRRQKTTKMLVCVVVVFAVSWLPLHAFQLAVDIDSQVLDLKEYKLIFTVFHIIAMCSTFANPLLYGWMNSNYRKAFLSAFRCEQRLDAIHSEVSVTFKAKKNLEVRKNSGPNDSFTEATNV
The experiment can be described thus: hNPY2R CreLuc reporter gene assay in 0.5% and 100% plasma. From the text:
Example 1: hGLPR/hGIPR/hNPY2R CreLuc Assay in 0.5% and 100% Plasma
CHO and HEK-293 recombinant cell lines express a luciferase reporter gene under control of the cAMP responsive element (CRE). As a second recombinant protein the GLP-1 and NPY2 receptors were expressed in the reporter gene HEK cells, and the GIP receptor was expressed in the reporter gene CHO cells, respectively. Stimulation of these recombinant cells with an agonist leads to an increase of intracellular cAMP levels. In the presence of cAMP, the transcription factor CRE binding protein (CREB) binds to the CRE and to the CREB binding protein (CBP), which leads to transcription of the luciferase reporter gene. Peptides upon serial-dilution in 100% DMSO were transferred into 384-well assay plates with 5 μl pre-dispensed assay buffer (1×HBSS, 20 mM HEPES, pH7.4 supplemented with 0.5% human plasma) using acoustic dispensing on a Labcyte ECHO. Cryo-preserved transgenic reporter gene cells were thawed in assay buffer. 20 μl (10.000 cells/well) were added to the plate with the peptides and incubated for 4 hours at 37° C. in a humidified incubator. Following incubation, assay plates are equilibrated to room temperature, followed by addition of 25 μl of Bright-GIo™ Luciferase reagent, incubation at room temperature for 10 minutes and analysis of luminescence (Envision Reader). Concentration response evaluation of compounds was performed with 8 concentrations of peptides (covering four decades). EC50 values were calculated by non-linear regression using sigmoid concentration-response with variable slope. The same assays were run in the presence of 100% plasma with no additional buffer constituents.

The target in a further experiment is T3, hGLP1R (Homo sapiens, UniProt P43220).
T3 construct: expressed in transfected cells; host or cells: HEK-293 cells carrying a CRE-luciferase reporter gene
Kind of experiment: hGLP1R CreLuc reporter gene assay in 0.5% and 100% plasma. A digest of the protocol: as §1

The mark [1] stands for this setting: 0.5% human plasma, read-out: hGIPR 0.5% hP.
Where [2] appears, read: 100% human plasma, read-out: hGIPR 100% hP.
Setting [3] is: 0.5% human plasma, read-out: hNPY2R 0.5% hP.
[4] abbreviates: 100% human plasma, read-out: hNPY2R 100% hP.
[5] abbreviates: 0.5% human plasma, read-out: hGLP1R 0.5% hP.
[6] abbreviates: 100% human plasma, read-out: hGLP1R 100% hP.

Where two headings read alike, the source gives them in different places. Starred links: 1 amine or outer side, 2 acyl side, 3 side chain; linkers in the order of their positions; H or OH if unused. Non-standard residues stand in square brackets, D forms with d. Groups on a side chain read outwards from the residue. No end group written: not given here. *: point of attachment. C20 diacid = O=C(O)CCCCCCCCCCCCCCCCCCC(=O)*; C18 diacid = O=C(O)CCCCCCCCCCCCCCCCC(=O)*; γGlu = O=C(O)[C@H](CCC(=O)[*:2])N[*:1]; εLys = N[C@@H](CCCCN[*:1])C(=O)[*:2]; Aib = CC(C)(N)C(=O)O

T3 sequence (P43220 24-463): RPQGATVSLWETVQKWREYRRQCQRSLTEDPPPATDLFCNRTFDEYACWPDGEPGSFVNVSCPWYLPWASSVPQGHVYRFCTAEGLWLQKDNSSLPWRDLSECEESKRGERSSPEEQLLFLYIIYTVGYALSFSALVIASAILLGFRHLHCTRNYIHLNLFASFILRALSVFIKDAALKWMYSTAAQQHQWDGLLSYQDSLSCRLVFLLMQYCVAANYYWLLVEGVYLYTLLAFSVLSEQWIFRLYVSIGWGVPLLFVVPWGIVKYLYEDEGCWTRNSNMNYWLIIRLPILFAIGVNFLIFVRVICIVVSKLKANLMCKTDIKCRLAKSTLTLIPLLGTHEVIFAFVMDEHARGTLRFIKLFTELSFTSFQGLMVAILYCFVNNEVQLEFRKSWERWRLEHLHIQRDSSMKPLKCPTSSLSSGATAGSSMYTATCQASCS

Take “H-Y[Aib]EGTFTSDYSI[Aib]LEEQAQ[Aib]AFVEWLIK([εLys-γGlu-γGlu-γGlu-γGlu-γGlu-γGlu-C20 diacid])GGPSSGASLRHYYNWLTRQRY-NH2 [Compound 116, Y-Aib-E-G-T-F-T-S-D-Y-S-I-Aib-L-E-E-Q-A-Q-Aib-A-F-V-E-W-L-I-K(1,3)-GGPSSGASLRHYYNWLTRQRY-NH2.C20DA-gGlu-gGlu-gGlu-gGlu-gGlu-gGlu-eLys(1,2)]”: the EC50 at hGIPR (setting [1]) stood at 0.43 nM; at hGIPR (setting [2]) it was 3.01 nM; at hNPY2R (setting [3]), 13.5 nM; on hNPY2R (setting [4]), 85.7 nM; on hGLP1R (setting [5]), 0.14 nM; on hGLP1R (setting [6]) it was 2.48 nM.

Consider `CC[C@H](C)[C@H](NC(=O)[C@H](CC(C)C)NC(=O)[C@H](Cc1c[nH]c2ccccc12)NC(=O)[C@H](CCC(=O)O)NC(=O)[C@@H](NC(=O)[C@H](Cc1ccccc1)NC(=O)[C@H](C)NC(=O)C(C)(C)NC(=O)[C@H](CCC(N)=O)NC(=O)[C@H](C)NC(=O)[C@H](CCC(N)=O)NC(=O)[C@H](CCCCN)NC(=O)[C@H](CCC(=O)O)NC(=O)[C@H](CC(C)C)NC(=O)C(C)(C)NC(=O)[C@@H](NC(=O)[C@H](CO)NC(=O)[C@H](Cc1ccc(O)cc1)NC(=O)[C@H](CC(=O)O)NC(=O)[C@H](CO)NC(=O)[C@@H](NC(=O)[C@H](Cc1ccccc1)NC(=O)[C@@H](NC(=O)CNC(=O)[C@H](CCC(=O)O)NC(=O)C(C)(C)NC(=O)[C@@H](N)Cc1ccc(O)cc1)[C@@H](C)O)[C@@H](C)O)[C@@H](C)CC)C(C)C)C(=O)N[C@@H](CCCCNC(=O)[C@@H](N)CCCCNC(=O)CC[C@H](NC(=O)CC[C@H](NC(=O)CC[C@H](NC(=O)CC[C@H](NC(=O)CC[C@H](NC(=O)CC[C@H](NC(=O)CCCCCCCCCCCCCCCCCCC(=O)O)C(=O)O)C(=O)O)C(=O)O)C(=O)O)C(=O)O)C(=O)O)C(=O)NCC(=O)NCC(=O)N1CCC[C@H]1C(=O)N[C@@H](CO)C(=O)N[C@@H](CCC(=O)O)C(=O)NCC(=O)N[C@@H](CCC(=O)O)C(=O)N[C@@H](CO)C(=O)N[C@@H](CC(C)C)C(=O)N[C@@H](CCCNC(=N)N)C(=O)N[C@@H](Cc1c[nH]cn1)C(=O)N[C@@H](Cc1ccc(O)cc1)C(=O)N[C@@H](Cc1ccc(O)cc1)C(=O)N[C@@H](CC(N)=O)C(=O)N[C@@H](Cc1c[nH]c2ccccc12)C(=O)N[C@@H](CC(C)C)C(=O)N[C@H](C(=O)N[C@@H](CCCNC(=N)N)C(=O)N[C@@H](CCC(N)=O)C(=O)N[C@@H](CCCNC(=N)N)C(=O)N[C@@H](Cc1ccc(O)cc1)C(N)=O)[C@@H](C)O` [Compound 237, Y-Aib-E-G-T-F-T-S-D-Y-S-I-Aib-L-E-K-Q-A-Q-Aib-A-F-V-E-W-L-I-K(1,3)-GGPSEGESLRHYYNWLTRQRY-NH2.C20DA-gGlu-gGlu-gGlu-gGlu-gGlu-gGlu-eLys(1,2)], for which the EC50 worked out at 0.1 nM at hGIPR (setting [1]); 1.17 nM at hGIPR (setting [2]); 18 nM on hNPY2R (setting [3]); 0.26 nM at hGLP1R (setting [5]); 3.11 nM on hGLP1R (setting [6]).

In the case of “H-Y[Aib]EGTFTSDYSI[Aib]LEKQAQ[Aib]AFVQWLIK([εLys-γGlu-γGlu-γGlu-γGlu-γGlu-C18 diacid])GGPESGASLRHYYNWLTRQRY-NH2 [Compound 60, Y-Aib-E-G-T-F-T-S-D-Y-S-I-Aib-L-E-K-Q-A-Q-Aib-A-F-V-Q-W-L-I-K(1,3)-GGPESGASLRHYYNWLTRQRY-NH2.C18DA-gGlu-gGlu-gGlu-gGlu-gGlu-eLys(1,2)]”, the EC50 was 0.33 nM on hGIPR (setting [1]); 0.35 nM on hGIPR (setting [2]); 23.1 nM at hNPY2R (setting [4]); 0.08 nM on hGLP1R (setting [5]); 1.69 nM at hGLP1R (setting [6]).

“H-Y[Aib]EGTFTSDYSI[Aib]LEKQAQ[dD]AFVEWLIK([εLys-γGlu-γGlu-γGlu-γGlu-γGlu-γGlu-C20 diacid])GGPSSGASLRHYYNWLTRQRY-NH2 [Compound 211, Y-Aib-E-G-T-F-T-S-D-Y-S-I-Aib-L-E-K-Q-A-Q-DAsp-A-F-V-E-W-L-I-K(1,3)-GGPSSGASLRHYYNWLTRQRY-NH2.C20DA-gGlu-gGlu-gGlu-gGlu-gGlu-gGlu-eLys(1,2)]”: the values for the EC50 at hNPY2R (setting [3]), on hNPY2R (setting [4]) and on hGLP1R (setting [5]) were 11.2 nM, 56.3 nM and 0.74 nM, respectively.

On to “H-Y[Aib]EGTFTSDYSI[Aib]LE[Aib]EAQ[Aib]KFVEWLIK([εLys-γGlu-γGlu-γGlu-γGlu-γGlu-γGlu-C20 diacid])GGPSSGASLRHYYNWLTRQRY-NH2 [Compound 16, Y-Aib-E-G-T-F-T-S-D-Y-S-I-Aib-L-E-Aib-E-A-Q-Aib-K-F-V-E-W-L-I-K(1,3)-GGPSSGASLRHYYNWLTRQRY-NH2.C20DA-gGlu-gGlu-gGlu-gGlu-gGlu-gGlu-eLys(1,2)]”, for which the values for the EC50 on hNPY2R (setting [3]), on hNPY2R (setting [4]) and at hGLP1R (setting [5]) were 28.8 nM, 197 nM and 1.48 nM, respectively.

“H-Y[Aib]EGTFTSDYSI[Aib]LEKQAQ[dR]AFVEWLIK([εLys-γGlu-γGlu-γGlu-γGlu-γGlu-γGlu-C20 diacid])GGPSSGASLRHYYNWLTRQRY-NH2 [Compound 216, Y-Aib-E-G-T-F-T-S-D-Y-S-I-Aib-L-E-K-Q-A-Q-DArg-A-F-V-E-W-L-I-K(1,3)-GGPSSGASLRHYYNWLTRQRY-NH2.C20DA-gGlu-gGlu-gGlu-gGlu-gGlu-gGlu-eLys(1,2)]”: the EC50 is 16.8 nM at hNPY2R (setting [4]) and 0.31 nM on hGLP1R (setting [5]).

On to “Y[Aib]EGTFTSDYSI[Aib]LEKQAQ[Aib]AFVEWLIK([γGlu-γGlu-γGlu-γGlu-γGlu-C20 diacid])GGPSSGASLRHYYNWLTRQRY-NH2 [Compound 238, Y-Aib-E-G-T-F-T-S-D-Y-S-I-Aib-L-E-K-Q-A-Q-Aib-A-F-V-E-W-L-I-K(1,3)-GGPSSGASLRHYYNWLTRQRY-NH2.C20DA-gGlu-gGlu-gGlu-gGlu-gGlu(1,2)]”, for which the figures for the EC50 on hNPY2R (setting [3]), at hGLP1R (setting [5]) and at hGLP1R (setting [6]) were 11.6 nM, 0.1 nM and 2.55 nM, respectively.

For the compound “H-Y[Aib]EGTFTSDYSI[Aib]LEKQAQ[Aib]AFVEWLIK([εLys-γGlu-γGlu-γGlu-γGlu-γGlu-γGlu-C20 diacid])GGPSSAASLRHYYNWLTRQRY-NH2 [Compound 98, Y-Aib-E-G-T-F-T-S-D-Y-S-I-Aib-L-E-K-Q-A-Q-Aib-A-F-V-E-W-L-I-K(1,3)-GGPSSAASLRHYYNWLTRQRY-NH2.C20DA-gGlu-gGlu-gGlu-gGlu-gGlu-gGlu-eLys(1,2)]”, the EC50 at hNPY2R (setting [3]) is 15.1 nM; at hGLP1R (setting [5]), 0.31 nM.

Consider “H-Y[Aib]EGTFTSDYSI[Aib]LEKQAQ[Aib]AFVQWLIK([εLys-γGlu-γGlu-γGlu-γGlu-γGlu-γGlu-C20 diacid])GGPSYYVSLRHYYNWLTRQRY-NH2 [Compound 19, Y-Aib-E-G-T-F-T-S-D-Y-S-I-Aib-L-E-K-Q-A-Q-Aib-A-F-V-Q-W-L-I-K(1,3)-GGPSYYVSLRHYYNWLTRQRY-NH2.C20DA-gGlu-gGlu-gGlu-gGlu-gGlu-gGlu-eLys(1,2)]”, for which the EC50 at hNPY2R (setting [4]) was determined as 19.3 nM; on hGLP1R (setting [5]), 0.5 nM; at hGLP1R (setting [6]), 10.2 nM.
